Tests used:
Assay type in all cases: functional
OVCAR-3 = assay: Growth inhibition of human OVCAR3 cells incubated for 48 hrs by sulforhodamine B assay; conditions: OVCAR-3, 48 h; for CC50: read-out: LC50 (the source's name)
MOLT-4 = assay: Growth inhibition of human MOLT4 cells assessed as cell growth at 10 uM incubated for 48 hrs by sulforhodamine B assay relative to control; conditions: MOLT-4, 48 h, read-out: Activity
HOP-62 = assay: Growth inhibition of human HOP62 cells assessed as cell growth at 10 uM incubated for 48 hrs by sulforhodamine B assay relative to control; conditions: HOP-62, 48 h, read-out: Activity
HCT-116 = assay: Growth inhibition of human HCT116 cells assessed as cell growth at 10 uM incubated for 48 hrs by sulforhodamine B assay relative to control; conditions: HCT-116, 48 h, read-out: Activity
SN12C = assay: Growth inhibition of human SN12C cells assessed as cell growth at 10 uM incubated for 48 hrs by sulforhodamine B assay relative to control; conditions: read-out: Activity
A498 = assay: Growth inhibition of human A498 cells incubated for 48 hrs by sulforhodamine B assay; conditions: A498, 48 h; for CC50: read-out: LC50 (the source's name)
SNB-75 = assay: Growth inhibition of human SNB75 cells assessed as cell growth at 10 uM incubated for 48 hrs by sulforhodamine B assay relative to control; conditions: SNB-75, 48 h, read-out: Activity
NCI-H522 = assay: Growth inhibition of human NCI-H522 cells assessed as cell growth at 10 uM incubated for 48 hrs by sulforhodamine B assay relative to control; conditions: NCI-H522, 48 h, read-out: Activity
Hs-578T = assay: Growth inhibition of human Hs 578T cells assessed as cell growth at 10 uM incubated for 48 hrs by sulforhodamine B assay relative to control; conditions: read-out: Activity
HCC 2998 = assay: Growth inhibition of human HCC2998 cells assessed as cell growth at 10 uM incubated for 48 hrs by sulforhodamine B assay relative to control; conditions: HCC 2998, 48 h, read-out: Activity
PC-3 [1] = assay: Growth inhibition of human PC3 cells incubated for 48 hrs by sulforhodamine B assay; conditions: PC-3, 48 h; for CC50: read-out: LC50 (the source's name)
SK-MEL-28 = assay: Growth inhibition of human SK-MEL-28 cells assessed as cell growth at 10 uM incubated for 48 hrs by sulforhodamine B assay relative to control; conditions: SK-MEL-28, 48 h, read-out: Activity
SW-620 = assay: Growth inhibition of human SW620 cells assessed as cell growth at 10 uM incubated for 48 hrs by sulforhodamine B assay relative to control; conditions: SW-620, 48 h, read-out: Activity
RPMI-8226 = assay: Growth inhibition of human RPMI8226 cells assessed as cell growth at 10 uM incubated for 48 hrs by sulforhodamine B assay relative to control; conditions: RPMI-8226, 48 h, read-out: Activity
U-251 = assay: Growth inhibition of human U251 cells incubated for 48 hrs by sulforhodamine B assay; conditions: U-251, 48 h; for CC50: read-out: LC50 (the source's name)
DU-145 [2] = assay: Growth inhibition of human DU145 cells assessed as cell growth at 10 uM incubated for 48 hrs by sulforhodamine B assay relative to control; conditions: DU-145, 48 h, read-out: Activity
RXF 393 = assay: Growth inhibition of human RXF393 cells assessed as cell growth at 10 uM incubated for 48 hrs by sulforhodamine B assay relative to control; conditions: RXF 393, 48 h, read-out: Activity
T47D = assay: Growth inhibition of human T47D cells incubated for 48 hrs by sulforhodamine B assay; conditions: for CC50: read-out: LC50 (the source's name)
OVCAR-8 = assay: Growth inhibition of human OVCAR8 cells assessed as cell growth at 10 uM incubated for 48 hrs by sulforhodamine B assay relative to control; conditions: OVCAR-8, 48 h, read-out: Activity
PC-3 [3] = assay: Growth inhibition of human PC3 cells assessed as cell growth at 10 uM incubated for 48 hrs by sulforhodamine B assay relative to control; conditions: PC-3, 48 h, read-out: Activity
SR = assay: Growth inhibition of human SR cells assessed as cell growth at 10 uM incubated for 48 hrs by sulforhodamine B assay relative to control; conditions: read-out: Activity
UACC-257 = assay: Growth inhibition of human UACC257 cells assessed as cell growth at 10 uM incubated for 48 hrs by sulforhodamine B assay relative to control; conditions: UACC-257, 48 h, read-out: Activity
DU-145 [4] = assay: Growth inhibition of human DU145 cells incubated for 48 hrs by sulforhodamine B assay; conditions: DU-145, 48 h; for CC50: read-out: LC50 (the source's name)
MDA-MB-231 = assay: Growth inhibition of human MDA-MB-231 cells assessed as cell growth at 10 uM incubated for 48 hrs by sulforhodamine B assay relative to control; conditions: MDA-MB-231, 48 h, read-out: Activity
KM12 = assay: Growth inhibition of human KM12 cells assessed as cell growth at 10 uM incubated for 48 hrs by sulforhodamine B assay relative to control; conditions: KM12, 48 h, read-out: Activity
CCRF-CEM = assay: Growth inhibition of human CCRF-CEM cells assessed as cell growth at 10 uM incubated for 48 hrs by sulforhodamine B assay relative to control; conditions: read-out: Activity
NCI/ADR-RES = assay: Growth inhibition of human NCI/ADR-RES cells assessed as cell growth at 10 uM incubated for 48 hrs by sulforhodamine B assay relative to control; conditions: read-out: Activity
EKVX = assay: Growth inhibition of human EKVX cells assessed as cell growth at 10 uM incubated for 48 hrs by sulforhodamine B assay relative to control; conditions: read-out: Activity
BT-549 = assay: Growth inhibition of human BT549 cells assessed as cell growth at 10 uM incubated for 48 hrs by sulforhodamine B assay relative to control; conditions: BT-549, 48 h, read-out: Activity
SK-OV-3 = assay: Growth inhibition of human SKOV3 cells assessed as cell growth at 10 uM incubated for 48 hrs by sulforhodamine B assay relative to control; conditions: SK-OV-3, 48 h, read-out: Activity
NCI-H460 = assay: Growth inhibition of human NCI-H460 cells incubated for 48 hrs by sulforhodamine B assay; conditions: NCI-H460, 48 h; for CC50: read-out: LC50 (the source's name)
M14 = assay: Growth inhibition of human M14 cells assessed as cell growth at 10 uM incubated for 48 hrs by sulforhodamine B assay relative to control; conditions: M14, 48 h, read-out: Activity
IGROV-1 = assay: Growth inhibition of human IGROV1 cells incubated for 48 hrs by sulforhodamine B assay; conditions: IGROV-1, 48 h; for CC50: read-out: LC50 (the source's name)

## COc1cc2cc(Oc3ccc(NC(=O)Nc4cccc(C(F)(F)F)c4)cc3)c(C)nc2cc1OC
OVCAR-3
  GI50: 2.04 µM
  TGI: 8.07 µM
  CC50: 39.9 µM
MOLT-4
  growth at 10 µM: 0.81%
HOP-62
  growth at 10 µM: 25%
HCT-116
  growth at 10 µM: 6.71%
SN12C
  growth at 10 µM: 17.2%
A498
  GI50: 1.29 µM
  TGI: 4.95 µM
  CC50: 29.7 µM
SNB-75
  growth at 10 µM: 13.1%
NCI-H522
  growth at 10 µM: -17.4%
Hs-578T
  growth at 10 µM: 22.6%
HCC 2998
  growth at 10 µM: 25.4%
PC-3 [1]
  GI50: 1.39 µM
  TGI: 5.49 µM
  CC50: 30.4 µM
SK-MEL-28
  growth at 10 µM: 26.7%
SW-620
  growth at 10 µM: 17.5%
RPMI-8226
  growth at 10 µM: -5.94%
U-251
  GI50: 1.56 µM
  TGI: 5.61 µM
  CC50: 17 µM
DU-145 [2]
  growth at 10 µM: 26.7%
RXF 393
  growth at 10 µM: -13.1%
T47D
  GI50: 1.61 µM
  TGI: 6.68 µM
  CC50: > 50 µM
OVCAR-8
  growth at 10 µM: 8.32%
PC-3 [3]
  growth at 10 µM: 0.08%
SR
  growth at 10 µM: -6.62%
UACC-257
  growth at 10 µM: -14.5%
DU-145 [4]
  GI50: 2.78 µM
  TGI: 15.8 µM
  CC50: > 50 µM
MDA-MB-231
  growth at 10 µM: -8.32%
KM12
  growth at 10 µM: -10.2%
CCRF-CEM
  growth at 10 µM: 6.41%
NCI/ADR-RES
  growth at 10 µM: 6.98%
EKVX
  growth at 10 µM: 15.4%
BT-549
  growth at 10 µM: -8.13%
SK-OV-3
  growth at 10 µM: 3.35%
NCI-H460
  GI50: 1.6 µM
  TGI: 6.02 µM
  CC50: 34.9 µM
M14
  growth at 10 µM: 22.6%
IGROV-1
  GI50: 2.95 µM
  TGI: 24.9 µM
  CC50: > 50 µM

## COc1cc2cc(Oc3ccc(NC(=O)Nc4ccc(Cl)c(C(F)(F)F)c4)cc3)c(C)nc2cc1OC
OVCAR-3
  GI50: 1.16 µM
  TGI: 4.45 µM
  CC50: 14 µM
MOLT-4
  growth at 10 µM: -27.9%
HOP-62
  growth at 10 µM: -51%
HCT-116
  growth at 10 µM: -87.3%
SN12C
  growth at 10 µM: 13.2%
A498
  GI50: 0.754 µM
  TGI: 3.32 µM
  CC50: 10.7 µM
SNB-75
  growth at 10 µM: 12.4%
NCI-H522
  growth at 10 µM: -43.6%
Hs-578T
  growth at 10 µM: 2.5%
HCC 2998
  growth at 10 µM: -13.1%
PC-3 [1]
  GI50: 0.781 µM
  TGI: 2.96 µM
  CC50: > 32.5 µM
SK-MEL-28
  growth at 10 µM: -35.9%
SW-620
  growth at 10 µM: 7.51%
RPMI-8226
  growth at 10 µM: -26.4%
U-251
  GI50: 1.03 µM
  TGI: 3.78 µM
  CC50: 12.6 µM
DU-145 [2]
  growth at 10 µM: 12.7%
RXF 393
  growth at 10 µM: -33.4%
T47D
  GI50: 1.21 µM
  TGI: 7.9 µM
  CC50: > 32.5 µM
OVCAR-8
  growth at 10 µM: 7.34%
PC-3 [3]
  growth at 10 µM: -0.61%
SR
  growth at 10 µM: -32.5%
UACC-257
  growth at 10 µM: -12.5%
DU-145 [4]
  GI50: 1.24 µM
  TGI: 5.11 µM
  CC50: 19.1 µM
MDA-MB-231
  growth at 10 µM: -50.6%
KM12
  growth at 10 µM: -16.4%
CCRF-CEM
  growth at 10 µM: -17.6%
NCI/ADR-RES
  growth at 10 µM: 2.01%
EKVX
  growth at 10 µM: 8.83%
BT-549
  growth at 10 µM: -38.7%
SK-OV-3
  growth at 10 µM: -4.09%
NCI-H460
  GI50: 1.07 µM
  TGI: 3.57 µM
  CC50: 21.1 µM
M14
  growth at 10 µM: -73.7%
IGROV-1
  GI50: 2.34 µM
  TGI: 9.83 µM
  CC50: > 32.5 µM

Reference: ChEMBL document CHEMBL3994622, “Design and synthesis of new RAF kinase-inhibiting antiproliferative quinoline derivatives. Part 2: Diarylurea derivatives” (Eur J Med Chem, 2017)
